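How tested: cells in 96-well plates exposed to compound for 48 hours at five concentrations. TGI denotes the concentration required for complete inhibition of growth.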
Columns and labels:
Test in all cases: growth of human tumour cells (NCI), 48 h
[1] = tested on: TK-10 renal
[2] = tested on: A549 NSCLC
[3] = tested on: 786-0 renal
[4] = tested on: NCI-H226 lung
[5] = tested on: NCI-H460 lung
[6] = tested on: HOP-92 NSCLC
[7] = tested on: OVCAR-3 ovarian
[8] = tested on: MALME-3M melanoma
[9] = tested on: NCI/ADR-RES ovarian
[10] = tested on: HS 578T breast
[11] = tested on: RPMI-8226 leukemia
[12] = tested on: PC-3 prostate
[13] = tested on: MDA-N
[14] = tested on: KM12 colon
[15] = tested on: OVCAR-5 ovarian
[16] = tested on: IGROV1 ovarian
[17] = tested on: NCI-H23 lung
[18] = tested on: COLO 205 colon
[19] = tested on: T-47D breast
[20] = tested on: HCT-116 colon
[21] = tested on: UO-31 renal
[22] = tested on: SNB-75 CNS
[23] = tested on: EKVX NSCLC
[24] = tested on: NCI-H522 lung
[25] = tested on: RXF 393 renal
[26] = tested on: HT29 colon
[27] = tested on: SF-295 CNS
[28] = tested on: UACC-257 melanoma
[29] = tested on: MDA-MB-435
[30] = tested on: OVCAR-4 ovarian
[31] = tested on: CCRF-CEM leukemia
[32] = tested on: MDA-MB-231 breast
[33] = tested on: M14 melanoma
[34] = tested on: HOP-62 NSCLC
[35] = tested on: HCC-2998 colon
[36] = tested on: MCF7 breast
[37] = tested on: UACC-62 melanoma
[38] = tested on: SF-268 CNS
[39] = tested on: K-562 leukemia
[40] = tested on: SK-OV-3 ovarian
[41] = tested on: DU-145 prostate
[42] = tested on: MOLT-4 leukemia
[43] = tested on: U251 CNS
[44] = tested on: SW-620 colon
[45] = tested on: HCT-15 colon
[46] = tested on: SK-MEL-2 melanoma
[47] = tested on: CAKI-1 renal
[48] = tested on: SF-539 CNS
[49] = tested on: A498 renal
[50] = tested on: ACHN renal
[51] = tested on: OVCAR-8 ovarian
[52] = tested on: SK-MEL-28 melanoma
[53] = tested on: LOX IMVI melanoma
[54] = tested on: SNB-19 CNS
[55] = tested on: BT-549 breast
[56] = tested on: SR leukemia
[57] = tested on: HL-60(TB) leukemia
[58] = tested on: SK-MEL-5 melanoma
[59] = tested on: SN12C renal

## COc1ccc(/C=N/n2c(Cc3ccc(Cl)cc3)n[nH]c2=O)c(OC)c1
[1]
  TGI: 52.2 µM
[2]
  TGI: > 100 µM
[3]
  TGI: 52.8 µM
[4]
  TGI: 61.2 µM
[5]
  TGI: > 100 µM
[6]
  TGI: 65.9 µM
[7]
  TGI: > 100 µM
[8]
  TGI: > 100 µM
[9]
  TGI: 45.2 µM
[10]
  TGI: 37.3 µM
[11]
  TGI: > 100 µM
[12]
  TGI: > 100 µM
[13]
  TGI: > 100 µM
[14]
  TGI: > 100 µM
[15]
  TGI: > 100 µM
[16]
  TGI: > 100 µM
[17]
  TGI: > 100 µM
[18]
  TGI: > 100 µM
[19]
  TGI: > 100 µM
[20]
  TGI: > 100 µM
[21]
  TGI: > 100 µM
[22]
  TGI: 37.5 µM
[23]
  TGI: > 100 µM
[24]
  TGI: 37.4 µM
[25]
  TGI: 41.7 µM
[26]
  TGI: 75.1 µM
[27]
  TGI: 42.9 µM
[28]
  TGI: > 100 µM
[29]
  TGI: > 100 µM
[30]
  TGI: 41.6 µM
[31]
  TGI: > 100 µM
[32]
  TGI: > 100 µM
[33]
  TGI: > 100 µM
[34]
  TGI: > 100 µM
[35]
  TGI: > 100 µM
[36]
  TGI: > 100 µM
[37]
  TGI: 66.6 µM
[38]
  TGI: 32 µM
[39]
  TGI: > 100 µM
[40]
  TGI: > 100 µM
[41]
  TGI: > 100 µM
[42]
  TGI: > 100 µM
[43]
  TGI: > 100 µM
[44]
  TGI: > 100 µM
[45]
  TGI: > 100 µM
[46]
  TGI: > 100 µM
[47]
  TGI: > 100 µM
[48]
  TGI: > 100 µM
[49]
  TGI: 51.1 µM
[50]
  TGI: > 100 µM
[51]
  TGI: 95.5 µM
[52]
  TGI: > 100 µM
[53]
  TGI: > 100 µM
[54]
  TGI: 48.4 µM
[55]
  TGI: 67 µM

## N#C[C@H]1Nc2ccccc2[C@@H](O)C1O (stereo partly drawn)
[1]
  TGI: > 100 µM
[2]
  TGI: > 100 µM
[3]
  TGI: > 100 µM
[5]
  TGI: > 100 µM
[6]
  TGI: > 100 µM
[7]
  TGI: > 100 µM
[56]
  TGI: > 100 µM
[8]
  TGI: > 100 µM
[9]
  TGI: > 100 µM
[10]
  TGI: > 100 µM
[11]
  TGI: > 100 µM
[12]
  TGI: > 100 µM
[13]
  TGI: > 100 µM
[14]
  TGI: > 100 µM
[15]
  TGI: > 100 µM
[16]
  TGI: > 100 µM
[17]
  TGI: > 100 µM
[18]
  TGI: > 100 µM
[57]
  TGI: > 100 µM
[19]
  TGI: > 100 µM
[20]
  TGI: > 100 µM
[58]
  TGI: > 100 µM
[22]
  TGI: > 100 µM
[23]
  TGI: > 100 µM
[25]
  TGI: > 100 µM
[26]
  TGI: > 100 µM
[27]
  TGI: > 100 µM
[28]
  TGI: > 100 µM
[29]
  TGI: > 100 µM
[30]
  TGI: > 100 µM
[31]
  TGI: > 100 µM
[32]
  TGI: > 100 µM
[33]
  TGI: > 100 µM
[34]
  TGI: > 100 µM
[35]
  TGI: > 100 µM
[36]
  TGI: > 100 µM
[37]
  TGI: > 100 µM
[38]
  TGI: > 100 µM
[39]
  TGI: > 100 µM
[40]
  TGI: > 100 µM
[41]
  TGI: > 100 µM
[42]
  TGI: > 100 µM
[59]
  TGI: > 100 µM
[43]
  TGI: > 100 µM
[44]
  TGI: > 100 µM
[45]
  TGI: > 100 µM
[46]
  TGI: > 100 µM
[47]
  TGI: > 100 µM
[48]
  TGI: > 100 µM
[50]
  TGI: > 100 µM
[51]
  TGI: > 100 µM
[52]
  TGI: > 100 µM
[53]
  TGI: > 100 µM
